Reference: ChEMBL document CHEMBL1201862, “PubChem BioAssay data set” (2004)
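Results reflect a 48-hour exposure of cells in 96-well plates to compound at five concentrations. GI50 is the concentration that inhibits growth by half.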 Calls of active or inactive are those of the source. Rule as the data show it: active = GI50 up to about 1.1 µM and inactive = higher.

Key:
Test in all cases: NCI anticancer screen, dose series, 48 h
A549 = tested on: A549
CAKI-1 = tested on: CAKI-1
COLO 205 = tested on: COLO 205
DU-145 = tested on: DU-145
HCC 2998 = tested on: HCC 2998
HCT-15 = tested on: HCT-15
HL-60 = tested on: HL-60
LOX IMVI = tested on: LOX IMVI
MOLT-4 = tested on: MOLT-4
Malme-3M = tested on: Malme-3M
NCI-H226 = tested on: NCI-H226
NCI-H23 = tested on: NCI-H23
RXF 393 = tested on: RXF 393
SF-295 = tested on: SF-295
SK-MEL-5 = tested on: SK-MEL-5
SR = tested on: SR
SW-620 = tested on: SW-620
T47D = tested on: T47D
UACC-62 = tested on: UACC-62
UO-31 = tested on: UO-31

| Structure (SMILES) | GI50 (A549) | GI50 (CAKI-1) | GI50 (COLO 205) | GI50 (DU-145) | GI50 (HCC 2998) | GI50 (HCT-15) [µM] | GI50 (HL-60) | GI50 (LOX IMVI) | GI50 (MOLT-4) | GI50 (Malme-3M) | GI50 (NCI-H226) | GI50 (NCI-H23) | GI50 (RXF 393) | GI50 (SF-295) | GI50 (SK-MEL-5) | GI50 (SR) | GI50 (SW-620) | GI50 (T47D) | GI50 (UACC-62) | GI50 (UO-31) |
| --- | --- | --- | --- | --- | --- | --- | --- | --- | --- | --- | --- | --- | --- | --- | --- | --- | --- | --- | --- | --- |
| CC(=O)c1cnc2oc3ccc(O)cc3c2c1-c1ccccc1 | 47.1 µM (inactive) | 29.4 µM (inactive) | 30.3 µM (inactive) | 32.1 µM (inactive) | 38 µM (inactive) | 58.1 | 37.5 µM (inactive) | 99.1 µM (inactive) | 19.2 µM (inactive) | 15.5 µM (inactive) | 35.6 µM (inactive) | 46.1 µM (inactive) | 25.3 µM (inactive) | 30 µM (inactive) | 22.2 µM (inactive) | 33.3 µM (inactive) | > 100 µM (inactive) | 10.8 µM (inactive) | 20.5 µM (inactive) | – |
| N=C(N)SCc1ccc(Cl)cc1Cl.O=[N+]([O-])c1c(O)c(Cl)cc(Cl)c1Cl | 22.3 µM (inactive) | 11 µM (inactive) | 14.2 µM (inactive) | 13.5 µM (inactive) | 8.18 µM (inactive) | 13.3 | 6.04 µM (inactive) | 16.7 µM (inactive) | 7.4 µM (inactive) | 15.6 µM (inactive) | 20.5 µM (inactive) | 13.4 µM (inactive) | 12.8 µM (inactive) | 13.5 µM (inactive) | 15.3 µM (inactive) | 5.21 µM (inactive) | 15.2 µM (inactive) | 9.82 µM (inactive) | 14.4 µM (inactive) | 9.06 µM (inactive) |
| O=C(c1ccccc1)c1c(C(F)(F)F)[n+]([O-])c2cc(Cl)c(Cl)cc2[n+]1[O-] | 0.736 µM (active) | 1.58 µM (inactive) | 2.93 µM (inactive) | 0.45 µM (active) | 2.16 µM (inactive) | 0.535 | 0.789 µM (active) | 0.41 µM (active) | 0.643 µM (active) | 1.72 µM (inactive) | 3.02 µM (inactive) | 0.565 µM (active) | 1.82 µM (inactive) | 3.21 µM (inactive) | 2 µM (inactive) | 0.175 µM (active) | 0.619 µM (active) | 1.45 µM (inactive) | 3.97 µM (inactive) | 1.47 µM (inactive) |
| O=C1CC(=O)NC(NNS(=O)(=O)c2ccc(Cl)cc2)=N1 | > 100 µM (inactive) | > 100 µM (inactive) | > 100 µM (inactive) | > 100 µM (inactive) | > 100 µM (inactive) | > 100 | 70.8 µM (inactive) | – | > 100 µM (inactive) | > 100 µM (inactive) | > 100 µM (inactive) | > 100 µM (inactive) | > 100 µM (inactive) | > 100 µM (inactive) | > 100 µM (inactive) | > 100 µM (inactive) | > 100 µM (inactive) | > 100 µM (inactive) | > 100 µM (inactive) | > 100 µM (inactive) |
| CSC1=NS(=O)(=O)c2cc(C(=O)NN(C)C(=O)c3cc4c(cc3Cl)SC(SC)=NS4(=O)=O)c(Cl)cc2S1 | > 10 µM (inactive) | > 10 µM (inactive) | > 10 µM (inactive) | > 10 µM (inactive) | > 10 µM (inactive) | > 10 | > 10 µM (inactive) | > 10 µM (inactive) | > 10 µM (inactive) | > 10 µM (inactive) | > 10 µM (inactive) | > 10 µM (inactive) | > 10 µM (inactive) | > 10 µM (inactive) | > 10 µM (inactive) | > 10 µM (inactive) | > 10 µM (inactive) | > 10 µM (inactive) | – | > 10 µM (inactive) |
| COc1ccc(-c2cc(-c3ccc(Nc4ccnc5cc(C(F)(F)F)ccc45)cc3)nc(N)c2C#N)c2ccccc12 | > 100 µM (inactive) | > 100 µM (inactive) | > 100 µM (inactive) | > 100 µM (inactive) | > 100 µM (inactive) | > 100 | 70.3 µM (inactive) | 29.4 µM (inactive) | 53.3 µM (inactive) | > 100 µM (inactive) | – | > 100 µM (inactive) | > 100 µM (inactive) | > 100 µM (inactive) | > 100 µM (inactive) | 32.5 µM (inactive) | > 100 µM (inactive) | > 100 µM (inactive) | > 100 µM (inactive) | > 100 µM (inactive) |
| N=C(N)NS(=O)(=O)c1ccc(NC(=O)c2cccc3c(O)c4ccccc4nc23)cc1 | > 100 µM (inactive) | > 100 µM (inactive) | > 100 µM (inactive) | > 100 µM (inactive) | > 71.8 µM (inactive) | > 100 | > 100 µM (inactive) | > 75 µM (inactive) | > 83 µM (inactive) | > 100 µM (inactive) | > 100 µM (inactive) | > 92.3 µM (inactive) | > 41 µM (inactive) | 60.3 µM (inactive) | > 100 µM (inactive) | > 74.8 µM (inactive) | > 100 µM (inactive) | > 100 µM (inactive) | > 100 µM (inactive) | > 100 µM (inactive) |
| CC(C)(C)OC(=O)NCC(O)CNC(=O)OC(C)(C)C | > 100 µM (inactive) | > 100 µM (inactive) | > 100 µM (inactive) | > 100 µM (inactive) | > 100 µM (inactive) | > 100 | > 100 µM (inactive) | > 100 µM (inactive) | > 100 µM (inactive) | > 100 µM (inactive) | > 100 µM (inactive) | > 100 µM (inactive) | > 100 µM (inactive) | > 100 µM (inactive) | > 100 µM (inactive) | > 100 µM (inactive) | > 100 µM (inactive) | > 100 µM (inactive) | > 100 µM (inactive) | > 100 µM (inactive) |
| Clc1ccccc1/C=C/c1ccnc2ccccc12 | 16.2 µM (inactive) | 16.9 µM (inactive) | 13.8 µM (inactive) | 15.7 µM (inactive) | 18.2 µM (inactive) | 13.9 | 19.8 µM (inactive) | 18.4 µM (inactive) | – | 19.5 µM (inactive) | 16.8 µM (inactive) | 14.1 µM (inactive) | 16.5 µM (inactive) | 15.7 µM (inactive) | 15.1 µM (inactive) | 17 µM (inactive) | 18.4 µM (inactive) | 13.6 µM (inactive) | 15.2 µM (inactive) | 17.3 µM (inactive) |
| CC1=C(c2ccccc2)NC(=S)C(C)C(c2ccccc2)=N1 (stereo not given) | 40.1 µM (inactive) | 56.6 µM (inactive) | 30.9 µM (inactive) | 40.4 µM (inactive) | 34.3 µM (inactive) | 25.8 | 12.6 µM (inactive) | 30 µM (inactive) | 15.2 µM (inactive) | 32.7 µM (inactive) | 52.4 µM (inactive) | 9.91 µM (inactive) | 21.7 µM (inactive) | 29.1 µM (inactive) | 24.9 µM (inactive) | 22 µM (inactive) | 44.1 µM (inactive) | 15.8 µM (inactive) | 33.7 µM (inactive) | 19.6 µM (inactive) |
| COC(=O)c1ccc2c(c1)CC1(C2)Cc2ccc3c(c2C1)CCC3 (stereo not given) | 29.9 µM (inactive) | 0.0543 µM (active) | 9.84 µM (inactive) | 53.6 µM (inactive) | 43 µM (inactive) | 20.1 | 14.8 µM (inactive) | 20.8 µM (inactive) | 15 µM (inactive) | 17.4 µM (inactive) | 47.6 µM (inactive) | 57.3 µM (inactive) | 17.7 µM (inactive) | 24.9 µM (inactive) | 14.3 µM (inactive) | 20.8 µM (inactive) | 14.4 µM (inactive) | 14.3 µM (inactive) | 14.6 µM (inactive) | – |
| C(#CP(c1ccccc1)c1ccccc1)P(C#CP(c1ccccc1)c1ccccc1)c1ccccc1 | > 100 µM (inactive) | > 100 µM (inactive) | > 100 µM (inactive) | > 100 µM (inactive) | > 100 µM (inactive) | > 100 | > 100 µM (inactive) | – | > 100 µM (inactive) | > 100 µM (inactive) | > 100 µM (inactive) | – | > 100 µM (inactive) | 5.9 µM (inactive) | > 100 µM (inactive) | > 100 µM (inactive) | > 100 µM (inactive) | > 100 µM (inactive) | > 100 µM (inactive) | > 100 µM (inactive) |
| CC(CC(=O)N1C2CC3CCC2(CS1(=O)=O)C3(C)C)[Si](C)(C)C (stereo not given) | > 100 µM (inactive) | > 100 µM (inactive) | > 100 µM (inactive) | > 100 µM (inactive) | > 100 µM (inactive) | > 100 | > 100 µM (inactive) | > 100 µM (inactive) | > 100 µM (inactive) | > 100 µM (inactive) | > 100 µM (inactive) | > 100 µM (inactive) | > 100 µM (inactive) | > 100 µM (inactive) | > 100 µM (inactive) | > 100 µM (inactive) | > 100 µM (inactive) | > 100 µM (inactive) | – | > 100 µM (inactive) |
| C=C1C(C[C@@H]2O[C@H]3C[C@H]4O[C@@]5(C[C@@H]6O[C@]7(C[C@H](C)[C@@H]8O[C@@H]9CC(C(O)CO)O[C@@H]9C[C@@H]8O7)C[C@H](C)[C@@H]6O5)C[C@H]4O[C@H]3[C@H](C)[C@H]2O)O[C@@H](CC[C@@H]2O[C@@H](CC[C@@]34CC5O[C@H]6C(O[C@H]7CC[C@H](CC(=O)OC)O[C@@H]7[C@@H]6O3)[C@H]5O4)CC2=C)C[C@H]1C (stereo not given in full) | 0.000108 µM (active) | 0.000286 µM (active) | < 0.0001 µM (active) | < 0.0001 µM (active) | < 0.0001 µM (active) | 0.000258 | < 0.0001 µM (active) | < 0.0001 µM (active) | 0.000146 µM (active) | – | 0.000174 µM (active) | < 0.0001 µM (active) | < 0.0001 µM (active) | < 0.0001 µM (active) | < 0.0001 µM (active) | < 0.0001 µM (active) | < 0.0001 µM (active) | 0.01 µM (active) | < 0.0001 µM (active) | 0.000904 µM (active) |
